Test results as given in PubChem BioAssay AID2060501 (Molecular Pharmacology Branch, DTP, NCI, 2025).
pIC50: −log10 of the molar value.

Test system: 282377-053-R-J1-PDC complex spheroids, viability
Experiment: Anticancer human tumor 282377-053-R-J1-PDC patient-derived colon adenocarcinoma cell line growth inhibition [GQUAD]
Details: for pIC50: curve of first compound; for viability, T/C: stronger effect = lower value
Procedure, shortened: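 Viability of tumor cells grown as complex spheroids with endothelial and stromal cells, exposed to drug combinations. Top concentration at or near clinical Cmax (else 10 microM), diluted in half-log increments.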
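Also: spheroids exposed to compounds for 7 days before readout.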
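For viability, T/C in this document: percent of vehicle DMSO control viability with 100% = untreated-like growth.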

## O=c1[nH]cc(F)c(=O)[nH]1 + Cc1cnc(CNC(=O)c2c(=O)c3ccc(N4CCCN(C)CC4)nc3n3c2sc2ccccc23)cn1
Second compound 0.0316 µM
  pIC50: < 5.00
Second compound 0.1 µM
  pIC50: < 5.00
Second compound 0.316 µM
  pIC50: < 5.00
Second compound 1 µM
  pIC50: < 5.00
Second compound 3.16 µM
  pIC50: < 5.00
Second compound 10 µM
  pIC50: > 7.50
Second compound 0.0316 µM, first compound 0.0316 µM
  viability, T/C: 98.6%
Second compound 0.0316 µM, first compound 0.1 µM
  viability, T/C: 92.1%
Second compound 0.0316 µM, first compound 0.316 µM
  viability, T/C: 114%
Second compound 0.0316 µM, first compound 1 µM
  viability, T/C: 82.9%
Second compound 0.0316 µM, first compound 3.16 µM
  viability, T/C: 77%
Second compound 0.0316 µM, first compound 10 µM
  viability, T/C: 65.4%
Second compound 0.1 µM, first compound 0.0316 µM
  viability, T/C: 94.6%
Second compound 0.1 µM, first compound 0.1 µM
  viability, T/C: 97.7%
Second compound 0.1 µM, first compound 0.316 µM
  viability, T/C: 107%
Second compound 0.1 µM, first compound 1 µM
  viability, T/C: 76.2%
Second compound 0.1 µM, first compound 3.16 µM
  viability, T/C: 76.1%
Second compound 0.1 µM, first compound 10 µM
  viability, T/C: 65%
Second compound 0.316 µM, first compound 0.0316 µM
  viability, T/C: 78.3%
Second compound 0.316 µM, first compound 0.1 µM
  viability, T/C: 82.6%
Second compound 0.316 µM, first compound 0.316 µM
  viability, T/C: 81.4%
Second compound 0.316 µM, first compound 1 µM
  viability, T/C: 76.3%
Second compound 0.316 µM, first compound 3.16 µM
  viability, T/C: 68.5%
Second compound 0.316 µM, first compound 10 µM
  viability, T/C: 62.8%
Second compound 1 µM, first compound 0.0316 µM
  viability, T/C: 51.3%
Second compound 1 µM, first compound 0.1 µM
  viability, T/C: 51.8%
Second compound 1 µM, first compound 0.316 µM
  viability, T/C: 62.5%
Second compound 1 µM, first compound 1 µM
  viability, T/C: 56.8%
Second compound 1 µM, first compound 3.16 µM
  viability, T/C: 55.6%
Second compound 1 µM, first compound 10 µM
  viability, T/C: 48.3%
Second compound 3.16 µM, first compound 0.0316 µM
  viability, T/C: 54.8%
Second compound 3.16 µM, first compound 0.1 µM
  viability, T/C: 50.1%
Second compound 3.16 µM, first compound 0.316 µM
  viability, T/C: 49%
Second compound 3.16 µM, first compound 1 µM
  viability, T/C: 44.2%
Second compound 3.16 µM, first compound 3.16 µM
  viability, T/C: 63.6%
Second compound 3.16 µM, first compound 10 µM
  viability, T/C: 53.9%
Second compound 10 µM, first compound 0.0316 µM
  viability, T/C: 46.4%
Second compound 10 µM, first compound 0.1 µM
  viability, T/C: 45.7%
Second compound 10 µM, first compound 0.316 µM
  viability, T/C: 54.5%
Second compound 10 µM, first compound 1 µM
  viability, T/C: 52.5%
Second compound 10 µM, first compound 3.16 µM
  viability, T/C: 54.5%
Second compound 10 µM, first compound 10 µM
  viability, T/C: 34.9%
